# Data taken from the supplement of paper PMC10307832.
# Columns and labels:
# Assay in all cases: relative viability (nuclei count vs DMSO), 5 days (fraction); higher = more cells survive
# LK-2 = system: LK-2
# Outline: (§1)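 Values are medians from duplicate plates. Each reflects relative viability, defined as the nuclei count of treated wells over that of vehicle wells. Lung cancer cell lines in 1536-well plates were pin-tool dosed one day after seeding with one drug alone or with a fixed anchor-drug dose plus five library-drug doses (not always all listed) in √10 steps, then fixed, stained and imaged at 4× after 5 days.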
# PC-14 = system: PC-14
# Outline: as §1
# NCI-H838 = system: NCI-H838
# Outline: as §1
# HCC-44 = system: HCC-44
# Outline: as §1
# NCI-H2347 = system: NCI-H2347
# Outline: as §1
# COR-L23 = system: COR-L23
# Outline: as §1
# NCI-H1944 = system: NCI-H1944
# Outline: as §1
# NCI-H460 = system: NCI-H460
# Outline: as §1
# NCI-H650 = system: NCI-H650
# Outline: as §1
# SW 900 = system: SW 900
# Outline: as §1
# LCLC-97TM1 = system: LCLC-97TM1
# Outline: as §1
# NCI-H1563 = system: NCI-H1563
# Outline: as §1
smiles,measurement,setting,value
C=C1C(=O)O[C@@H](CCCCCCCC)[C@@H]1C(=O)O [C-75] + CCNC(=O)c1noc(-c2cc(C(C)C)c(O)cc2O)c1-c1ccc(CN2CCOCC2)cc1 [Luminespib] (partner 0.01 µM),relative viability,LK-2; first compound 0.253 µM,0.195
same,relative viability,LK-2; first compound 0.8 µM,0.191
same,relative viability,LK-2; first compound 2.53 µM,0.185
same,relative viability,LK-2; first compound 8 µM,0.202
same,relative viability,PC-14; first compound 0.08 µM,0.158
same,relative viability,PC-14; first compound 0.253 µM,0.171
same,relative viability,PC-14; first compound 0.8 µM,0.151
same,relative viability,PC-14; first compound 2.53 µM,0.142
same,relative viability,PC-14; first compound 8 µM,0.152
same,relative viability,NCI-H838; first compound 0.08 µM,0.325
same,relative viability,NCI-H838; first compound 0.8 µM,0.296
same,relative viability,NCI-H838; first compound 2.53 µM,0.286
same,relative viability,NCI-H838; first compound 8 µM,0.238
same,relative viability,HCC-44; first compound 0.08 µM,0.966
same,relative viability,HCC-44; first compound 0.253 µM,0.984
same,relative viability,HCC-44; first compound 0.8 µM,1
same,relative viability,HCC-44; first compound 2.53 µM,0.89
same,relative viability,HCC-44; first compound 8 µM,0.729
same,relative viability,NCI-H2347; first compound 0.08 µM,0.409
same,relative viability,NCI-H2347; first compound 0.253 µM,0.474
same,relative viability,NCI-H2347; first compound 0.8 µM,0.294
same,relative viability,NCI-H2347; first compound 8 µM,0.446
same,relative viability,COR-L23; first compound 0.08 µM,0.63
same,relative viability,COR-L23; first compound 0.253 µM,0.706
same,relative viability,COR-L23; first compound 0.8 µM,0.682
same,relative viability,COR-L23; first compound 2.53 µM,0.66
same,relative viability,COR-L23; first compound 8 µM,0.559
same,relative viability,NCI-H1944; first compound 0.08 µM,0.777
same,relative viability,NCI-H1944; first compound 0.253 µM,0.642
same,relative viability,NCI-H1944; first compound 0.8 µM,0.684
same,relative viability,NCI-H1944; first compound 8 µM,0.761
same,relative viability,NCI-H460; first compound 0.08 µM,0.0308
same,relative viability,NCI-H460; first compound 0.253 µM,0.0239
same,relative viability,NCI-H460; first compound 0.8 µM,0.0329
same,relative viability,NCI-H460; first compound 8 µM,0.0319
same,relative viability,NCI-H650; first compound 0.08 µM,0.685
same,relative viability,NCI-H650; first compound 0.253 µM,0.737
same,relative viability,NCI-H650; first compound 0.8 µM,0.818
same,relative viability,NCI-H650; first compound 2.53 µM,0.684
same,relative viability,NCI-H650; first compound 8 µM,0.788
same,relative viability,SW 900; first compound 0.08 µM,0.169
same,relative viability,SW 900; first compound 0.253 µM,0.191
same,relative viability,SW 900; first compound 0.8 µM,0.163
same,relative viability,SW 900; first compound 2.53 µM,0.175
same,relative viability,SW 900; first compound 8 µM,0.206
same,relative viability,LCLC-97TM1; first compound 0.08 µM,0.731
same,relative viability,LCLC-97TM1; first compound 0.253 µM,0.808
same,relative viability,LCLC-97TM1; first compound 0.8 µM,0.852
same,relative viability,LCLC-97TM1; first compound 2.53 µM,0.452
same,relative viability,LCLC-97TM1; first compound 8 µM,0.801
same,relative viability,NCI-H1563; first compound 0.08 µM,0.498
same,relative viability,NCI-H1563; first compound 0.253 µM,0.535
same,relative viability,NCI-H1563; first compound 0.8 µM,0.531
same,relative viability,NCI-H1563; first compound 2.53 µM,0.483
same,relative viability,NCI-H1563; first compound 8 µM,0.557
